pIC50: −log10 of the molar value.
How the values were obtained:
[1] = target: T1, Voltage-dependent L-type calcium channel subunit alpha-1C (Homo sapiens, UniProt Q13936); assay: (§1) Inhibition of Cav1.2 calcium current measured using whole cell patch clamp in human atrial myocytes; type: functional, cell-based, Heart, Cardiac Muscle Cell; set-up: ca sol conc 1.8 mM, temp 25 C
[2] = target: T2, Voltage-dependent L-type calcium channel subunit alpha-1C (Cavia porcellus, UniProt O35505); assay: Inhibition of Cav1.2 calcium current measured using whole Cell patch clamp in guinea pig ventricular myocytes; type: functional, cell-based, Heart, Ventricular myocyte; set-up: ca sol conc 1.8 mM
T2 sequence (O35505 whole entry): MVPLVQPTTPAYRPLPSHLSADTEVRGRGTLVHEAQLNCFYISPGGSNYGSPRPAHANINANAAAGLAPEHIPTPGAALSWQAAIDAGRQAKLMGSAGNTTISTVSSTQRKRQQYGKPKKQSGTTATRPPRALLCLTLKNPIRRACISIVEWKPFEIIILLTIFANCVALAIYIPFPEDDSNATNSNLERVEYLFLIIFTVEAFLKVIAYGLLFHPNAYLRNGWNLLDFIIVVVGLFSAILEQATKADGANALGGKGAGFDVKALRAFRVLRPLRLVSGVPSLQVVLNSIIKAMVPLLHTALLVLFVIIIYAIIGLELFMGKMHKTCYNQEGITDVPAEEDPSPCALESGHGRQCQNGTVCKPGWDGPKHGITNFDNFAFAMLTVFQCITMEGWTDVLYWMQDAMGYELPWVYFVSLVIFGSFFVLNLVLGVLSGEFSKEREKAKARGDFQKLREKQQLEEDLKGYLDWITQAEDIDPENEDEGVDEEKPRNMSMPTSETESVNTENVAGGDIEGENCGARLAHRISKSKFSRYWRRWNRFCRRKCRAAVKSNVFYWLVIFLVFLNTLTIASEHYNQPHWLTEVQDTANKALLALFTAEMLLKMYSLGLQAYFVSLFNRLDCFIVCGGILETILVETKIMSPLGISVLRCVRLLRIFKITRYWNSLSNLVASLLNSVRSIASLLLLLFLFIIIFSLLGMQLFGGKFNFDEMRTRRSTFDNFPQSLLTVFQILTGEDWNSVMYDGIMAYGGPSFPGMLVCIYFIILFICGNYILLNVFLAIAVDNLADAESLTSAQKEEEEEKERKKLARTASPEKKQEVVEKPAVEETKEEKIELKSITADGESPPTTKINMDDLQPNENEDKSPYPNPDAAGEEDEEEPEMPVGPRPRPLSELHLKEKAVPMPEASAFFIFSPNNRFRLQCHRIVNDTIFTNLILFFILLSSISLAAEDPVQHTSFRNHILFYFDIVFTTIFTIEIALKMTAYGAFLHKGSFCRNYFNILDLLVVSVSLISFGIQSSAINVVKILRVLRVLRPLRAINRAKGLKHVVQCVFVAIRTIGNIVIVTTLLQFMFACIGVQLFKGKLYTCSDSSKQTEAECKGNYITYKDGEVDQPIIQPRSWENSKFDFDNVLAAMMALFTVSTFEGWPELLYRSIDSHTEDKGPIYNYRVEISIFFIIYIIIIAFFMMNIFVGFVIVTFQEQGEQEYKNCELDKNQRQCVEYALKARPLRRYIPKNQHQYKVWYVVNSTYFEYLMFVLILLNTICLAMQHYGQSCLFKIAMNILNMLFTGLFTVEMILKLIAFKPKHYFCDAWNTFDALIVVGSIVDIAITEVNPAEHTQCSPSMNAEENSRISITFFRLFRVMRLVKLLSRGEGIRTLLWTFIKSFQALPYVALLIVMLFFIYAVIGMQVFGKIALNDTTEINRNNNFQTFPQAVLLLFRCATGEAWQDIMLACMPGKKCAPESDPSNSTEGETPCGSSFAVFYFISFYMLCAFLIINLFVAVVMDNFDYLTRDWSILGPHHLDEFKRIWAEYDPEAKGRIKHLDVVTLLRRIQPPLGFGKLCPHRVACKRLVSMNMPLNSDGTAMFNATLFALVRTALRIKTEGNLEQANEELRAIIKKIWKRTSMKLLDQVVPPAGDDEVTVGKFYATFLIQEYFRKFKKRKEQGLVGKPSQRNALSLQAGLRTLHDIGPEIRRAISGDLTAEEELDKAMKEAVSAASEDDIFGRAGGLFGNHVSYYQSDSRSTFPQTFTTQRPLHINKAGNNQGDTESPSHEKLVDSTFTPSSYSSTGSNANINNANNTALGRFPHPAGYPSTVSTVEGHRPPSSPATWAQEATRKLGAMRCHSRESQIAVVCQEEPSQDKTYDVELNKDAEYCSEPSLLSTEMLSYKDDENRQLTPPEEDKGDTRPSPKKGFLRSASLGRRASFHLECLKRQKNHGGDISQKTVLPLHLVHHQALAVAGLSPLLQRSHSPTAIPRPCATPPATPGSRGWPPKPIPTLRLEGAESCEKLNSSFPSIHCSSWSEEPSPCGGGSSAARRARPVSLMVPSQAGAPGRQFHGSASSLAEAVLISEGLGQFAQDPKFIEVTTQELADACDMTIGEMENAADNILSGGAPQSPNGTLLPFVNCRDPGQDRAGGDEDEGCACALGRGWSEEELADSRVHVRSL

[3] = target: T3, Voltage-dependent L-type calcium channel subunit alpha-1C (Oryctolagus cuniculus, UniProt P15381); assay: (§2) Inhibition of Cav1.2 calcium current measured using whole cell patch clamp in rabbit ventricular myocytes; type: functional, cell-based, Heart, Ventricular myocyte; set-up: ca sol conc 1.8 mM, temp 23 C
[4] = target: T3, Voltage-dependent L-type calcium channel subunit alpha-1C; assay: as §2; type: functional, cell-based, Heart, Ventricular myocyte; set-up: ca sol conc 1.8 mM, temp 23 C; remark: listed apart in the source
[5] = target: T2, Voltage-dependent L-type calcium channel subunit alpha-1C; assay: Inhibition of Cav1.2 calcium current measured using whole cell patch clamp in guinea pig atrial myocytes; type: functional, cell-based, Heart, Cardiac Muscle Cell; set-up: ca sol conc 1.8 mM, temp 36 pm 1 C
[6] = target: T4, Voltage-dependent L-type calcium channel subunit alpha-1C (Rattus norvegicus, UniProt P22002); assay: (§3) Inhibition of Cav1.2 calcium current measured using whole cell patch clamp in rat myocyte; type: functional, Heart, Cardiac Muscle Cell; set-up: ca sol conc 1.8 mM, temp 20-25 C
[7] = Inhibition of Cav1.2 calcium current measured using whole cell patch clamp in mouse/rat NG108-15; type: functional, cell-based; set-up: ca sol conc 1.8 mM, temp 20-25 C
[8] = target: T4, Voltage-dependent L-type calcium channel subunit alpha-1C; assay: as §3; type: functional, Heart; set-up: ca sol conc 1.8 mM, temp 20-25 C; settings: cardiac muscle cell
[9] = target: T5, Voltage-dependent L-type calcium channel subunit alpha-1C (Mus musculus, UniProt Q01815); assay: (§4) Inhibition of Cav1.2 calcium current measured using whole cell patch clamp in mouse ventricular myocytes; type: functional, cell-based, Heart; set-up: ca sol conc 2.5 mM, temp 22-24 C; settings: ventricular myocyte
[10] = target: T4, Voltage-dependent L-type calcium channel subunit alpha-1C; assay: Inhibition of Cav1.2 calcium current measured using FLIPR in rat aortic A7r5 cells; type: functional, cell-based
[11] = target: T2, Voltage-dependent L-type calcium channel subunit alpha-1C; assay: (§5) Inhibition of Cav1.2 calcium current measured using whole cell patch clamp in guinea pig ventricular myocytes; type: functional, cell-based, Heart, Ventricular myocyte; set-up: ca sol conc 5 mM, temp 20-22 C
[12] = target: T2, Voltage-dependent L-type calcium channel subunit alpha-1C; assay: as §5; type: functional, cell-based, Heart, Ventricular myocyte; set-up: ca sol conc 5 mM, temp 20-22 C; remark: listed apart in the source
[13] = target: T4, Voltage-dependent L-type calcium channel subunit alpha-1C; assay: (§6) Inhibition of Cav1.2 calcium current measured using whole cell patch clamp in rat ventricular myocytes; type: functional, cell-based, Heart, Ventricular myocyte; set-up: ca sol conc 1.8 mM, temp 25 C
[14] = target: T2, Voltage-dependent L-type calcium channel subunit alpha-1C; assay: as §5; type: functional, cell-based, Heart, Ventricular myocyte; set-up: ca sol conc 1.8 mM, temp 35 pm 0.5 C
[15] = target: T2, Voltage-dependent L-type calcium channel subunit alpha-1C; assay: as §5; type: functional, cell-based, Heart, Ventricular myocyte; set-up: ca sol conc 1.8 mM, temp 20-24 C
[16] = target: T2, Voltage-dependent L-type calcium channel subunit alpha-1C; assay: as §5; type: functional, cell-based, Heart, Ventricular myocyte; set-up: ca sol conc 1.8 mM, temp 25-27 C
[17] = target: T5, Voltage-dependent L-type calcium channel subunit alpha-1C; assay: as §4; type: functional, cell-based, Heart, Ventricular myocyte; set-up: ca sol conc 2 mM, temp room
[18] = target: T5, Voltage-dependent L-type calcium channel subunit alpha-1C; assay: as §4; type: functional, cell-based, Heart, Ventricular myocyte; set-up: ca sol conc 2 mM, temp room; remark: listed apart in the source
[19] = target: T1, Voltage-dependent L-type calcium channel subunit alpha-1C; assay: Inhibition of Cav1.2 calcium current measured using Voltage-clamp 2-electrode in Xenopous Oocyte transfected with human L-type calcium channel; type: functional, cell-based, Xenopus; set-up: ca sol conc 4 - Ba(OH)2 mM, temp 20-22 C
[20] = target: T4, Voltage-dependent L-type calcium channel subunit alpha-1C; assay: as §6; type: functional, cell-based, Heart, Ventricular myocyte; set-up: ca sol conc 1.8 mM
[21] = target: T2, Voltage-dependent L-type calcium channel subunit alpha-1C; assay: as §5; type: functional, cell-based, Heart, Ventricular myocyte; set-up: ca sol conc 2 mM, temp 22/37 C
[22] = target: T1, Voltage-dependent L-type calcium channel subunit alpha-1C; assay: as §1; type: functional, cell-based, Heart, Cardiac Muscle Cell; set-up: ca sol conc 2 mM, temp 22/37 C
[23] = target: T4, Voltage-dependent L-type calcium channel subunit alpha-1C; assay: as §3; type: functional, Heart, Cardiac Muscle Cell; set-up: ca sol conc 1.8 mM
[24] = target: T4, Voltage-dependent L-type calcium channel subunit alpha-1C; assay: as §3; type: functional, Heart, Cardiac Muscle Cell; set-up: ca sol conc 1.2 mM, temp 22 C
[25] = target: T4, Voltage-dependent L-type calcium channel subunit alpha-1C; assay: Inhibition of Cav1.2 calcium current measured using whole cell patch clamp in rat Vascular smooth muscle cells; type: functional, cell-based; set-up: ca sol conc 0 (Barium used instead) mM, temp 22 C
[26] = target: T4, Voltage-dependent L-type calcium channel subunit alpha-1C; assay: (§7) Inhibition of Cav1.2 calcium current measured using whole cell patch clamp in rat ventricular myocytess; type: functional, cell-based, Heart, Ventricular myocyte; set-up: ca sol conc 2 mM, temp 22-24 C
[27] = target: T4, Voltage-dependent L-type calcium channel subunit alpha-1C; assay: Inhibition of Cav1.2 calcium current measured using whole cell patch clamp in rat atrial myocytes; type: functional, cell-based, Heart, Cardiac Muscle Cell; set-up: ca sol conc 2 mM, temp 22-24 C
[28] = target: T2, Voltage-dependent L-type calcium channel subunit alpha-1C; assay: as §5; type: functional, cell-based, Heart, Ventricular myocyte; set-up: ca sol conc 1.8 mM
[29] = target: T2, Voltage-dependent L-type calcium channel subunit alpha-1C; assay: as §5; type: functional, cell-based, Heart, Ventricular myocyte; set-up: ca sol conc 1.8 mM; remark: listed apart in the source
[30] = target: T4, Voltage-dependent L-type calcium channel subunit alpha-1C; assay: as §6; type: functional, cell-based, Heart, Ventricular myocyte; set-up: ca sol conc 1 mM, temp 34 C
[31] = target: T4, Voltage-dependent L-type calcium channel subunit alpha-1C; assay: as §6; type: functional, cell-based, Heart, Ventricular myocyte; set-up: ca sol conc 1.8 mM, temp 25-27 C
[32] = target: T3, Voltage-dependent L-type calcium channel subunit alpha-1C; assay: as §2; type: functional, cell-based, Heart, Ventricular myocyte; set-up: ca sol conc 1 - BaCl2 mM, temp 37 C
[33] = target: T2, Voltage-dependent L-type calcium channel subunit alpha-1C; assay: as §5; type: functional, cell-based, Heart, Ventricular myocyte; set-up: ca sol conc 1 mM, temp 35 C
[34] = target: T2, Voltage-dependent L-type calcium channel subunit alpha-1C; assay: as §5; type: functional, cell-based, Heart, Ventricular myocyte; set-up: ca sol conc 1.8 mM, temp 35-36 C
[35] = target: T2, Voltage-dependent L-type calcium channel subunit alpha-1C; assay: as §5; type: functional, cell-based, Heart, Ventricular myocyte; set-up: ca sol conc 0.5 mM
[36] = target: T2, Voltage-dependent L-type calcium channel subunit alpha-1C; assay: Inhibition of Cav1.2 calcium current measured using whole cell patch clamp in guinea pig tracheal smooth muscle cells; type: functional, tissue-based, Trachea; set-up: ca sol conc 5 - Barium mM, temp 35 C
[37] = target: T4, Voltage-dependent L-type calcium channel subunit alpha-1C; assay: as §7; type: functional, cell-based, Heart, Ventricular myocyte; set-up: ca sol conc 1.8 mM, temp 20-22 C

T1 sequence (Q13936 whole entry): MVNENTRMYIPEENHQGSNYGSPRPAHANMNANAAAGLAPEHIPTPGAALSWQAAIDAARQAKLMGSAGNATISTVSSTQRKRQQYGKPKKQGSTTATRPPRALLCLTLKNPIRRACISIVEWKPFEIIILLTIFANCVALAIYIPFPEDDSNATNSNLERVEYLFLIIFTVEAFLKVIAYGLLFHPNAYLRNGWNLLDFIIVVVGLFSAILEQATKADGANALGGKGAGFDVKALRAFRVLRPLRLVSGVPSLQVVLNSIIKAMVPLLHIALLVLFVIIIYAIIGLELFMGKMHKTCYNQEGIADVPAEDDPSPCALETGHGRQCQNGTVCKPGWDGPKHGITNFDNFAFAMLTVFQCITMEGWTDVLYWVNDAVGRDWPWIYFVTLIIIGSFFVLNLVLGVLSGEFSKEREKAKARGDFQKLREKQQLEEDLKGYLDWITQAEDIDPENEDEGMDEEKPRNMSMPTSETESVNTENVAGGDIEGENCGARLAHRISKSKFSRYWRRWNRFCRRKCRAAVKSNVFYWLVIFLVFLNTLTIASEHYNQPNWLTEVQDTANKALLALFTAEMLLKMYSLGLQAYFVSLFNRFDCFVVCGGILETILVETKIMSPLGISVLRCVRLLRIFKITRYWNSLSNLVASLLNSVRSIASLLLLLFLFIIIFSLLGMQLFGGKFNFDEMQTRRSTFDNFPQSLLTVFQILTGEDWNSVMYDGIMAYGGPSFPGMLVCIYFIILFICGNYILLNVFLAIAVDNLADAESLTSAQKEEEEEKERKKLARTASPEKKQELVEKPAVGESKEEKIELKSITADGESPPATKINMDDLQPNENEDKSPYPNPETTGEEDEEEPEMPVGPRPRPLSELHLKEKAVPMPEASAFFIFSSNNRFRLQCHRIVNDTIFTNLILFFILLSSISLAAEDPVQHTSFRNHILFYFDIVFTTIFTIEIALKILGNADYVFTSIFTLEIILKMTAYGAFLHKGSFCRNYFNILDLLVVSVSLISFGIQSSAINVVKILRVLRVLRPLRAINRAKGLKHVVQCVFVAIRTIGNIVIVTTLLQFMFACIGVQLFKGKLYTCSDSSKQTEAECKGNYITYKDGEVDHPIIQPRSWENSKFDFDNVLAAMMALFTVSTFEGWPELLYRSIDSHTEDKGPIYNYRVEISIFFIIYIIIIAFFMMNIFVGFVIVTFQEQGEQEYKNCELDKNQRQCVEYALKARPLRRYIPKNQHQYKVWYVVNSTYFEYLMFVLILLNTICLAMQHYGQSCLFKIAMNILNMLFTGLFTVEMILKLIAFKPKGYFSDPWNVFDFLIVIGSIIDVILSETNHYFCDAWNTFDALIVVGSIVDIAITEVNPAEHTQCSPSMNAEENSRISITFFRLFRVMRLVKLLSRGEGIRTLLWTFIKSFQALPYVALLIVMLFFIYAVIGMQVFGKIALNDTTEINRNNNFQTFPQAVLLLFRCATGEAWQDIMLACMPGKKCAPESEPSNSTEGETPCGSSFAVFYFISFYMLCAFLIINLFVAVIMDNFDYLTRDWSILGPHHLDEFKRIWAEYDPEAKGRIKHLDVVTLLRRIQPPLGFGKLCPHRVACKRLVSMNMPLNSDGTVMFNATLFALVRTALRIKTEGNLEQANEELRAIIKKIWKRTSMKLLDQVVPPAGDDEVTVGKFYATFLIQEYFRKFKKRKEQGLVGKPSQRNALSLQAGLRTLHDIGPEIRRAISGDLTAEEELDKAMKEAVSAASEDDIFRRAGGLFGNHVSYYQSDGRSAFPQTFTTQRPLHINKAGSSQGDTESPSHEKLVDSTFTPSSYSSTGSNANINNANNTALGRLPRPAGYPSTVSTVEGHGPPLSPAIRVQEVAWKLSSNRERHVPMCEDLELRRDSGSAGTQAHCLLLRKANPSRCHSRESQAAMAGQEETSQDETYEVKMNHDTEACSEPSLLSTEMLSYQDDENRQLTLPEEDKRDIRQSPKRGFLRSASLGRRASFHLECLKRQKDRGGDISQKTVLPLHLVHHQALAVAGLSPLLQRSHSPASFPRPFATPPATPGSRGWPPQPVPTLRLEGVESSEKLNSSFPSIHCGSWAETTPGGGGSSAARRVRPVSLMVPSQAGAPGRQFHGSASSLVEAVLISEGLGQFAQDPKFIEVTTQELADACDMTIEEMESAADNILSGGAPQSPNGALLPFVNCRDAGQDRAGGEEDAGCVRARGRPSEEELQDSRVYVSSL

## CNC1(c2ccccc2Cl)CCCCC1=O (stereo unspecified) [KETAMINE]
[1]
  pIC50: 5.74

## Cc1ccc(-c2cc(C(F)(F)F)nn2-c2ccc(S(N)(=O)=O)cc2)cc1 [CELECOXIB]
[2]
  pIC50: 4.97

## CC(C)(C)OC(=O)N1CC2CC(CN(C[C@H](O)COc3ccc(C#N)cc3)C2)C1
[3]
  pIC50: 5.89
[4]
  pIC50: 5.22

## COc1ccc(OCCCN(C)CCOc2ccc3c(c2)OCO3)c([C@@H]2Sc3ccccc3N(C)C2=O)c1 [LEVOSEMOTIADIL]
[5]
  pIC50: 5.89

## Clc1ccc(COC(Cn2ccnc2)c2ccc(Cl)cc2Cl)c(Cl)c1 (stereo unspecified) [MICONAZOLE]
[6]
  pIC50: 5.52

## Cc1cc(O)c(C(C)C)cc1CN1CCCCC1
[7]
  pIC50: 5.44

## OC(Cn1cncn1)(Cn1cncn1)c1ccc(F)cc1F [FLUCONAZOLE]
[8]
  IC50: inactive at 10uM. Original reference for datapoint is pubmed_id: 22975497

## CC(C)c1c(C(=O)Nc2ccccc2)c(-c2ccccc2)c(-c2ccc(F)cc2)n1CC[C@@H](O)C[C@@H](O)CC(=O)O [ATORVASTATIN]
[9]
  IC50: inactive at 10nM. Original reference for datapoint is pubmed_id: 17466325

## CC(C)[C@@H](NC(=O)NC1CCN(CCc2ccccc2)CC1)c1ccc(F)cc1
[10]
  pIC50: 5.30

## CC1=C(C(=O)OC(C)C)[C@@H](c2cccc3nonc23)C([N+](=O)[O-])=C(C)N1
[11]
  pIC50: 6.70
[12]
  pIC50: 9.00

## O=C(O)c1ccccc1Nc1ccccc1 [FENAMIC ACID]
[13]
  pIC50: 3.33

## CCC(C)n1ncn(-c2ccc(N3CCN(c4ccc(OCC5COC(Cn6cncn6)(c6ccc(Cl)cc6Cl)O5)cc4)CC3)cc2)c1=O (stereo unspecified) [ITRACONAZOLE]
[8]
  IC50: inactive at 10uM. Original reference for datapoint is pubmed_id: 22975497

## Cc1c(C)c2c(c(C)c1O)CCC(C)(COc1ccc(CC3SC(=O)NC3=O)cc1)O2 (stereo unspecified) [TROGLITAZONE]
[14]
  pIC50: 6.10

## COc1ccc(S(=O)(=O)NCc2cc(CN3CCCC3)c(O)c(CN3CCCC3)c2)cc1 [SULCARDINE]
[15]
  pIC50: 4.16

## COc1cc(C[C@H](C)[C@@H](C)C(=O)c2ccc(O)c(OC)c2)ccc1O
[16]
  pIC50: 5.12

## COc1ccc(CCN(C)CCCOc2ccc(S(=O)(=O)c3c(C(C)C)cn4ccccc34)cc2)cc1OC [FANTOFARONE]
[17]
  pIC50: 8.85
[18]
  pIC50: 6.82

## COc1ccccc1CCN1CCC(CC(=O)N[C@@H](c2ccc(F)cc2)C(C)C)CC1
[10]
  pIC50: 5.17

## CCN(CC)CC(=O)N1C[C@@H](c2ccc(Cl)cc2)Sc2ccccc21
[19]
  pIC50: 4.28

## CC(C)CC(N(C)C)C1(c2ccc(Cl)cc2)CCC1 (stereo unspecified) [SIBUTRAMINE]
[20]
  pIC50: 5.00

## CCCOC(C(=O)OC1CCN(C)CC1)(c1ccccc1)c1ccccc1 [PROPIVERINE]
[21]
  pIC50: 4.46
[22]
  pIC50: 4.38

## CC(/N=C(\NC#N)Nc1ccc(OC(F)F)cc1)C(C)(C)C (stereo unspecified)
[23]
  pIC50: 4.62

## O=C(/C=C/c1ccc(O)c(O)c1)OCCc1ccccc1 [CAFFEIC ACID PHENETHYL ESTER]
[16]
  pIC50: 5.96

## CCC1=C[C@@H]2CN3CCc4c([nH]c5ccccc45)[C@@](C(=O)OC)(C2)[C@@H]13 [CATHARANTHINE BASE]
[24]
  pIC50: 3.65
[25]
  pIC50: 5.08

## COCC(=O)O[C@]1(CCN(C)CCCc2nc3ccccc3[nH]2)CCc2cc(F)ccc2[C@@H]1C(C)C [MIBEFRADIL]
[10]
  pIC50: 5.96

## CCCCC/C=C\C/C=C\C/C=C/C/C=C\CCCC(=O)NCCO
[26]
  pIC50: 7.00

## CC(C)COCC(CN(Cc1ccccc1)c1ccccc1)N1CCCC1 (stereo unspecified) [BEPRIDIL]
[5]
  pIC50: 5.81

## O=C1CSC(c2ccccc2Cl)c2cc(Cl)ccc2N1 (stereo unspecified)
[27]
  pIC50: 6.57

## COCCOc1c(F)cccc1CCN1CCC(CC(=O)N[C@@H](c2ccc(F)cc2)C(C)C)CC1
[10]
  pIC50: 5.68

## COc1cccc(/C=C/CN2CCC(=C3c4ccccc4C=Cc4ccccc43)CC2)c1[N+](=O)[O-]
[28]
  pIC50: 5.31
[29]
  pIC50: 6.49

## COC(=O)CCc1ccc(OCC(O)CNC(C)C)cc1 (stereo unspecified) [ESMOLOL]
[30]
  pIC50: 3.35

## O=C1c2ccccc2-c2c3c(cc4ccnc1c24)OCO3 [LIRIODENINE]
[31]
  pIC50: 5.60

## CC(C)[C@@H]1CC[C@@H](C)C[C@H]1O [LEVOMENTHOL]
[32]
  pIC50: 4.13

## COCCOc1cccc(F)c1CCN1CCC(CC(=O)N[C@@H](c2ccc(F)cc2)C(C)C)CC1
[10]
  pIC50: 5.51

## CN1CCN(c2ncc(-c3cc(Cl)cc(Cl)c3Cl)c(N)n2)CC1 [SIPATRIGINE]
[33]
  pIC50: 5.22

## O=C1COc2c1c(=O)c1ccc(Br)cc1n2Cc1ccccc1F
[31]
  pIC50: 5.31

## CC(CC(c1ccccc1)c1ccccc1)NC(C)(C)C (stereo unspecified) [TERODILINE]
[34]
  pIC50: 4.47

## CCNCC#CC(C)(C)OC(=O)C(O)(c1ccccc1)C1CCCCC1 (stereo unspecified)
[34]
  pIC50: 4.57

## COc1ccc2c(c1OC)C[N+]1(Cc3ccc(Cl)cc3)CCc3cc4c(cc3C1C2)OCO4 (stereo unspecified)
[35]
  pIC50: 4.94

## CN1CCCC(n2nc(Cc3ccc(Cl)cc3)c3ccccc3c2=O)CC1 (stereo unspecified) [AZELASTINE]
[36]
  pIC50: 5.10

## O=C1C=CC[C@H](C[C@@H](O)CCc2ccc(O)cc2)O1
[37]
  pIC50: 5.49

Reference: ChEMBL document CHEMBL3638030, “IC50 data for the L-type calcium channel extracted from a set of literature articles”
